# Assay results: ChEMBL document CHEMBL1201862, “PubChem BioAssay data set” (2004)
# Active and inactive are the calls of the source.
# Experiments:
# Cytochrome P450 2C9 = Cytochrome P450 2C9 (Homo sapiens, UniProt P11712)
# [1] = NIH3T3 cell viability loss – ATP luminescence, mouse fibroblasts, counter-screen, dose response (AID 2010); format: functional, cell-based;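 further: cells exposed to compound for about 90 hours before reading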
# [2] = Trypanosoma cruzi growth suppression in host cells – NIH3T3 host cells, beta-gal luminescence, confirmation (AID 2044); format: functional, cell-based;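 further: intracellular parasites grown in NIH/3T3 mouse fibroblasts as host cells; luminescent beta-galactosidase reporter signal from transgenic T. cruzi replicating inside host cells; inhibitors lower the luminescence signal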
# [3] = target: T1, Heat shock factor protein 1 (Mus musculus, UniProt P38532); assay: decrease of HSF1-responsive luciferase luminescence – cell-based, NIH3T3, dose retest, confirmation (AID 2382); format: functional;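 further: NIH3T3 fibroblasts with HSF1-driven luciferase reporter stressed by proteasome inhibitor MG132; luminescence from HSF1-driven luciferase expression after 8 hours of MG132 stress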
# T1 sequence (P38532 whole entry): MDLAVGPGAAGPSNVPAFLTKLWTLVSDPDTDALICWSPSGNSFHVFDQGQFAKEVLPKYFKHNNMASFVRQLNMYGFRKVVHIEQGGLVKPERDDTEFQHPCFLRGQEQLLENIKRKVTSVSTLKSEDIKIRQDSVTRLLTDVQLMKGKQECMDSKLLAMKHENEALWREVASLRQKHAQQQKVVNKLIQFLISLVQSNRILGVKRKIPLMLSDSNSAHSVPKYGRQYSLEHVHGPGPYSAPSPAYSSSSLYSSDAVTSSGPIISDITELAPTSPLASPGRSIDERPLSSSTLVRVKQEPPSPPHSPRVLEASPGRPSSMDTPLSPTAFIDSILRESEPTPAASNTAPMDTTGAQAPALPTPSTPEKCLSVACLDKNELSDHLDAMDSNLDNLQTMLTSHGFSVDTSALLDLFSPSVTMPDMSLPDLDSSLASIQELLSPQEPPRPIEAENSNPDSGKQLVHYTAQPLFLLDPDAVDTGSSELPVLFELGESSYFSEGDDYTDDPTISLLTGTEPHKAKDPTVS
# [4] = viability of uninfected HEp-2 cells – cell-based, HTS, cytotoxicity control for RSV inhibitor project, dose response (AID 2410); format: functional; conditions: human respiratory syncytial virus
# [5] = fluconazole-exposed Candida albicans growth modulators – fluorescence, retest, confirmation (AID 2467); format: functional, cell-based
# [6] = NIH-3T3 fibroblast cytotoxicity, dose response, cytotoxicity control, cell-based, fluorescence, Alamar Blue, secondary assay (AID 2327); format: functional;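 further: NIH-3T3 mouse fibroblasts cultured with fluconazole at 8 µg/mL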
# Cytochrome P450 2C19 = Cytochrome P450 2C19 (Homo sapiens, UniProt P33261); assay: Cytochrome panel assay with activity outcomes. Panel member name: p450-cyp2c19 Compounds with AC50 equal or less than 10 uM are considered active; format: functional
# Sequence of Cytochrome P450 2C19 (P33261 whole entry): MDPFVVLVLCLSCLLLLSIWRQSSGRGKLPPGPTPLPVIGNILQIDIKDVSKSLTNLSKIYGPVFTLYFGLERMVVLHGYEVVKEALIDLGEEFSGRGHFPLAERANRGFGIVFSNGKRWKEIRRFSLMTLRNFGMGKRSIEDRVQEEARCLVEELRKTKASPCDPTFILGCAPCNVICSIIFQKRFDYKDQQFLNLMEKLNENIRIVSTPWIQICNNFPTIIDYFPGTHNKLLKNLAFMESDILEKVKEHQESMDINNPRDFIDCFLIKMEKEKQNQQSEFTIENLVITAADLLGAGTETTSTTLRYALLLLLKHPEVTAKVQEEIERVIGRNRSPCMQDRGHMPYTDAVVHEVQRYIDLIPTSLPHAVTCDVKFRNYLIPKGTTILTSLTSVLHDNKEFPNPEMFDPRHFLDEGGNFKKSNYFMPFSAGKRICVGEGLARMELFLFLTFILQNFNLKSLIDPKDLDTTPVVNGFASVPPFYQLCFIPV
# Streptococcus = assay: GAS UMAA2166 growth inhibition – luminescence, BacTiterGlo, counter-screen for streptokinase expression inhibitor project, dose response (AID 1915); format: functional, organism-based;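 further: potency for reduction of bacterial viability or growth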
# [7] = tested on: Streptococcus sp. 'group A'; assay: Streptococcus pyogenes SK(-)GAS viability under kanamycin – luminescence, BacTiterGlo, confirmation, counter-screen for streptokinase expression inhibitor project, dose response (AID 1900); format: functional, organism-based
# Sequence of Cytochrome P450 2C9 (P11712 whole entry): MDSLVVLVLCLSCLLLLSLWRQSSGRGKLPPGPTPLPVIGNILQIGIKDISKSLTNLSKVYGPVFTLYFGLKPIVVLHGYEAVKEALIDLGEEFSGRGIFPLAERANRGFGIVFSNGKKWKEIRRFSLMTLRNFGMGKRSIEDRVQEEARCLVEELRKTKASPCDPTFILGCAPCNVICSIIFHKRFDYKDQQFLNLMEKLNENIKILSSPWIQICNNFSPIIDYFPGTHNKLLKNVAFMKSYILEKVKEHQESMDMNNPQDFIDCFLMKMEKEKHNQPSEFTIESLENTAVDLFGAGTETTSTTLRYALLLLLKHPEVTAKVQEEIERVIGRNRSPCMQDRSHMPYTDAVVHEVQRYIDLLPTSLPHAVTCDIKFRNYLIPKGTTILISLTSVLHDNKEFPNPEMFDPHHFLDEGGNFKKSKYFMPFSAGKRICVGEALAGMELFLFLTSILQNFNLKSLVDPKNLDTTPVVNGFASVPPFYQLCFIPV
smiles,measurement,setting,value
c1ccc(CSc2nnc(-c3sccc3-n3cccc3)o2)cc1,AC50,Cytochrome P450 2C9,39.8 µM (inconclusive)
N#Cc1ccc(OCCOCCNC2CCCC2)cc1,EC50,[1],> 60 µM (not active)
same,EC50,[2],0.2 µM (active)
O=[N+]([O-])c1ccc(CSCc2ccc(Cl)cc2)cc1,AC50,Cytochrome P450 2C9,7.94 µM (inconclusive)
CN1CCN(Cc2cccc(Oc3ccc(Cl)cc3)c2)CC1,EC50,[1],> 60 µM (inconclusive)
same,EC50,[2],0.267 µM (active)
CCOc1ccc(CN2CCC(C(=O)N3CCN(c4ccccc4F)CC3)CC2)cc1OC,EC50,[1],> 30 µM (not active)
same,EC50,[2],0.182 µM (active)
O=C(COC(=O)c1cc[n+]([O-])cc1)Nc1cccc(Cl)c1Cl,EC50,[3],23 µM (active)
COC(=O)C1=C(C)N(c2ccc(Cl)cc2)/C(=C/c2ccc(O)cc2)C1=O,CC50,[4],36.3 µM (active)
CC(C)(C)NS(=O)(=O)c1cc2c3c(c1)CCN3C(=O)CC2,EC50,[3],> 195 µM (not active)
CCOc1ccc(CN(C)CC(=O)Nc2cccc(S(=O)(=O)N(C)c3ccccc3)c2)cc1,EC50,[1],> 60 µM (not active)
same,EC50,[2],0.181 µM (active)
O=C(NNC(=O)c1ccccc1O)c1ccc(Cl)cc1,AC50,Cytochrome P450 2C9,20 µM (inconclusive)
Cn1c(=S)c2nc(SCCN3CCCC3)[nH]c2n(C)c1=O,AC50,Cytochrome P450 2C9,3.16 µM (inconclusive)
O=C(COC(=O)c1cc(Cl)ccc1O)NNC(=O)c1ccc([N+](=O)[O-])cc1,EC50,[3],> 195 µM (not active)
O=c1[nH]c(NCCO)nc2c1C1(CCCCC1)Cc1ccccc1-2,CC50,[4],> 50 µM (active)
CCCCCCCCn1c(N2CCN(c3cccc(Cl)c3)CC2)nc2c1c(=O)[nH]c(=O)n2C,EC50,[1],> 60 µM (not active)
same,EC50,[2],2.22 µM (active)
Cc1ccc(NC(=O)CC2SC(N/N=C3\CCCc4ccccc43)=NC2=O)cc1 (stereo unspecified),CC50,[4],15.5 µM (active)
O=C(Cc1cccs1)Nc1cccc(-c2nc3ccccc3[nH]2)c1,EC50,[5],3.52 µM (active)
same,EC50,[6],> 150 µM (inconclusive)
CCNc1nc(NCC)nc(ON=C(C)C)n1,AC50,Cytochrome P450 2C19; read-out: AC50,17.8 µM (inconclusive)
Fc1cccc(Cl)c1Cn1nnc(-c2ccc3c(c2)OCO3)n1,CC50,[4],26.2 µM (active)
Cc1nc(S(=O)(=O)NC2CCCCC2)c(C#N)c(C)c1Cl,AC50,Cytochrome P450 2C9,28.2 µM (inconclusive)
CCN1C(=O)/C(=C2/C(=O)Nc3ccccc32)c2cc(Br)ccc21,EC50,[1],> 60 µM (inconclusive)
same,EC50,[2],1.3 µM (active)
Cc1ccc(S(=O)(=O)N(C)c2c(C)ccc(S(=O)(=O)N3CCN(C)CC3)c2C)cc1,EC50,[3],> 195 µM (not active)
Cc1ccccc1-c1nc2sc3c(c2c(=O)n1N)CCCC3,EC50,[3],> 195 µM (not active)
CC(C)(C)c1csc(NC(=O)Cn2cnc3ccccc3c2=O)n1,EC50,[5],> 38 µM (not active)
same,EC50,[6],> 150 µM (inconclusive)
CNC(S)=Nc1sc2c(c1C(=O)OC)CCC2,CC50,[4],36.2 µM (active)
CC(C)c1nnc(-c2ccc(Cl)cc2)c(N(C)C)n1,AC50,Cytochrome P450 2C9,10 µM (inconclusive)
CCC(=O)Nc1ccccc1C(=O)OCC(=O)c1ccc2ccccc2c1,CC50,[4],25 µM (active)
C=CCN(C(=O)CSC1=NC(=O)CN1C(C)=O)c1nc(C)c(-c2ccccc2)s1,EC50,[1],> 30 µM (not active)
same,EC50,[2],1.58 µM (active)
c1ccc(-c2nn[nH]n2)nc1,EC50,[3],> 195 µM (not active)
O=C(N/N=C/c1cccc(Oc2ccccc2)c1)c1cccc(Br)c1,CC50,[4],17 µM (active)
CC(=O)COc1ccc2c3c(c(=O)oc2c1)CCCC3,CC50,[4],> 50 µM (active)
O=C(NCC1CCCO1)c1cc2c3ccccc3nc-2c(-c2cccc(Br)c2)[nH]1 (stereo unspecified),EC50,[1],> 60 µM (not active)
same,EC50,[2],0.882 µM (active)
COc1ccc(CCNC(=O)[C@H](C)N2C(=O)N3CCc4c([nH]c5ccccc45)[C@@]3(C)C2=O)cc1,EC50,[1],> 60 µM (not active)
same,EC50,[2],1.97 µM (active)
O=[N+]([O-])c1ccc(C2CCCC/C2=N/OCc2ccc(F)cc2)c([N+](=O)[O-])c1 (stereo unspecified),EC50,[1],> 60 µM (not active)
same,EC50,[5],21.6 µM (active)
same,EC50,[6],> 160 µM (inactive)
same,EC50,[2],0.492 µM (active)
CCc1nnc(NC(=O)CSc2nnc(CNc3cccc(C)c3)n2-c2ccccc2)s1,EC50,[5],> 38 µM (not active)
same,EC50,[6],> 150 µM (inactive)
CC(=O)NC12CC3CC(C1)CC(C(=O)Oc1ccc(N(C)S(=O)(=O)c4cc(C)ccc4C)cc1)(C3)C2,CC50,[4],34.2 µM (active)
CCc1c(C)sc(NC(=O)CN2CCN(C(=O)c3ccco3)CC2)c1C(=O)OC,CC50,[4],12.7 µM (active)
CCNc1nc(NC(C)C)nc(N2CC(=O)N(CC(=O)OCC)C2=N)n1,CC50,[4],25.2 µM (active)
COC(=O)c1cccc(NC(=O)CN2CCN(Cc3ccccc3)CC2)c1,EC50,[3],> 195 µM (not active)
COC(=O)/C(=N/Nc1ccc(C)cc1)N1CCCc2ccccc21,CC50,[4],22.3 µM (active)
O=C(CSCc1ccc(Cl)cc1)Nc1cc([N+](=O)[O-])ccc1O,EC50,[5],0.491 µM (active)
same,EC50,[6],> 150 µM (inactive)
CCOc1ccc(NCC(=O)c2ccc(C)cc2)cc1,EC50,[1],> 30 µM (not active)
same,EC50,[3],> 195 µM (not active)
same,EC50,[2],1.38 µM (active)
CC(C)C[C@H](NC(=O)c1[nH]cnc1C(=O)N[C@@H](Cc1ccccc1)C(=O)OC(C)(C)C)C(=O)OC(C)(C)C,EC50,Streptococcus,5.07 µM (active)
same,EC50,[7],2.33 µM (active)
O=C(Oc1ccc2ccc(=O)oc2c1)c1ccco1,EC50,[1],> 60 µM (not active)
same,EC50,[2],> 60 µM (not active)
CCCCn1c(-c2ccco2)nc2oc3ccccc3c(=O)c2c1=O,EC50,Streptococcus,46.1 µM (active)
same,EC50,[7],64 µM (active)
CC1(C)Cc2c(C#N)c(SCCOc3ccccc3)nc(N3CCOCC3)c2CO1,EC50,[1],> 60 µM (not active)
same,EC50,[2],1.49 µM (active)
COc1ccccc1Cn1c(=O)c2ccccc2n2c(Sc3ncnc4sccc34)nnc12,CC50,[4],19.6 µM (active)
Cc1ccccc1N1CCN(CCN2C(=O)CC(=C3c4ccccc4-c4ccccc43)C2=O)CC1,EC50,[5],3.89 µM (active)
same,EC50,[6],> 160 µM (inactive)
O=C(CCc1ccc(Oc2cc([N+](=O)[O-])cc([N+](=O)[O-])c2)cc1)NC1CCCC1,EC50,[1],> 30 µM (not active)
same,EC50,[2],0.106 µM (active)
CN1CCN(Cc2ccc(Sc3ccc(Cl)cc3)c([N+](=O)[O-])c2)CC1,EC50,[1],> 60 µM (not active)
same,EC50,[2],1.13 µM (active)
Cc1cccc(OCC(=O)OC2CCN(C)CC2)c1,EC50,[3],> 195 µM (not active)
COc1ccc(CCn2c(C)cc3c(c2=O)C(c2ccc4c(c2)OCO4)C(C#N)=C(N)O3)cc1OC (stereo unspecified),EC50,[5],> 38 µM (not active)
same,EC50,[6],> 160 µM (inactive)
Nc1ccn([C@H]2O[C@@H](COP(=O)(O)O)[C@@H](O)[C@H]2O)c(=O)n1,AC50,Cytochrome P450 2C19,inconclusive
N#Cc1cc2c(nc1SCC(=O)N1CCOCC1)CCCCC2,EC50,[3],2.01 µM (active)
CSc1cc(-c2ccccc2)n(C)c(=O)c1C#N,EC50,[5],> 38 µM (not active)
same,EC50,[6],117 µM (active)
CCn1c2ccc(F)cc2c2nnc(SCCN3CCCCC3)nc21,EC50,[1],> 60 µM (not active)
same,EC50,[2],0.777 µM (active)
CCCCNC(=O)NS(=O)(=O)c1cnccc1Sc1ccc(Cl)cc1,AC50,Cytochrome P450 2C19; read-out: AC50,22.4 µM (inconclusive)
Nc1cccc(/C=C/C(=O)O)c1,EC50,[3],> 195 µM (not active)
Nc1cc2c(nc3c4ccccc4c(N)cc3[n+]2-c2cccc3ccccc23)c2ccccc12.Nc1cc2c(nc3c4ccccc4ccc3[n+]2-c2cccc3ccccc23)c2ccccc12,AC50,Cytochrome P450 2C9,2.51 µM (inconclusive)
C=CCNC(=S)N/N=C/c1ccc(-c2ccc(OC)cc2)o1,EC50,[1],> 60 µM (not active)
same,EC50,[5],> 38 µM (not active)
same,EC50,[6],> 150 µM (inactive)
same,EC50,[2],1.76 µM (active)
Cc1cc(C)n(C(=O)c2ccncc2)n1,EC50,[3],> 195 µM (not active)
Cc1c(O)cccc1C(=O)N[C@@H](CSc1ccccc1)[C@H](O)CN1C[C@H]2CCCC[C@H]2C[C@H]1C(=O)NC(C)(C)C,EC50,[1],> 60 µM (not active)
same,EC50,[2],3.42 µM (active)
Cc1ccc2cc(CCNC(=O)c3ccc(Br)o3)c(O)nc2c1,AC50,Cytochrome P450 2C9,10 µM (inconclusive)
Cc1nc2c(=O)oc3ccccc3c2n1-c1ccccc1,EC50,[5],2.15 µM (active)
same,EC50,[6],> 150 µM (inactive)
COc1ccc(C(=O)C2CCCN(S(=O)(=O)c3ccccc3F)C2)c(C)c1 (stereo unspecified),EC50,[3],> 195 µM (not active)
Cn1c(=O)c2cn(-c3ccc4c(c3)OCCO4)cc2n(C)c1=O,EC50,[3],> 195 µM (not active)
Cc1ccc(-c2csc(NC(=O)c3ccc(S(=O)(=O)N4CCc5ccccc54)cc3)n2)cc1,EC50,[3],> 195 µM (not active)
Cn1c(=O)c(=O)n(C)c2cc(S(=O)(=O)NCCN3CCN(c4ccccc4F)CC3)ccc21,EC50,[1],> 60 µM (not active)
same,EC50,[2],0.496 µM (active)
